# Source: patent US8716292B2, “Riminophenazines with 2-(heteroaryl)amino substituents and their anti-microbial activity” (priority 2010, dated 2014)
# Test system: Mycobacterium tuberculosis H37Rv strains
# Test: In vitro assay for antimicrobial susceptibility (microplate Alamar blue MIC)
# Type: cell-based
# Conditions: Mycobacterium tuberculosis, H37RV, 7H9, Alamar blue, inhibition ≧90%; read-out: MIC (μg/mL) against H37Rv
row,SMILES,MIC [µg/mL]
1,"COC1CCC(/N=c2\cc3n(-c4ccc(Cl)cc4)c4ccccc4nc-3cc2Nc2ncccn2)CC1 (stereo not shown) [TBI-1090, 5-(4-Chlorophenyl)-3-(4-methoxycyclohexyl)imino-2-(pyrimidin-2-yl)amino-3,5-dihydrophenazine]",< 0.0075
2,"CC(C)/N=c1\cc2n(-c3ccc(OC(F)(F)F)cc3)c3ccccc3nc-2cc1Nc1cnccn1 [TBI-953, 5-(4-Trifluoromethoxyphenyl)-3-(1-methylethyl)imino-2-(pyrazin-2-yl)amino-3,5-dihydrophenazine]",0.015

# Same assay, conditions: Mycobacterium tuberculosis, H37RV, in vitro, Mycobacterium tuberculosis H37Rv strains; read-out: MIC (μg/mL) against H37Rv
row,SMILES,MIC [µg/mL]
1,"CO[C@H]1CC[C@H](/N=c2\cc3n(-c4ccc(F)cc4)c4ccccc4nc-3cc2Nc2ccc(C)nc2)CC1 [TBI-907, 5-(4-Fluorophenyl)-3-(1′,4′-trans-4-methoxycyclohexyl)imino-2-(6-methyl-3-pyridyl)amino-3,5-dihydrophenazine]",0.063
2,"COc1ncccc1Nc1cc2nc3ccccc3n(-c3ccccc3OC(F)(F)F)c-2c/c1=N\C1CCC(OC)CC1 (stereo not shown) [TBI-1044, 5-(2-Trifluoromethoxyphenyl)-3-(4-methoxycyclohexyl)imino-2-(2-methoxy-3-pyridyl)amino-3,5-dihydrophenazine]",0.25
3,"COc1ncccc1Nc1cc2nc3cc(F)ccc3n(-c3ccc(Cl)cc3)c-2c/c1=N\C(C)C [TBI-929, 8-Fluoro-5-(4-chlorophenyl)-3-(1-methylethyl)imino-2-(2-methoxy-3-pyridyl)amino-3,5-dihydrophenazine]",0.125
4,"COc1ncccc1Nc1cc2nc3cc(C#N)ccc3n(-c3ccc(F)cc3)c-2c/c1=N\C(C)C [TBI-1064, 8-Cyano-5-(4-fluorophenyl)-3-(1-methylethyl)imino-2-(2-methoxy-3-pyridyl)amino-3,5-dihydrophenazine]",0.24
5,Cc1ncccc1Nc1cc2nc3ccccc3n(-c3ccc(Cl)cc3)c-2c/c1=N\C1CCOCC1 [TBI-452],0.168
6,"COc1ccc(Nc2cc3nc4ccccc4n(-c4ccccc4)c-3c/c2=N\C2CCCCC2)cn1 [TBI-513, 5-Phenyl-3-cyclohexylimino-2-(6-methoxy-3-pyridyl)amino-3,5-dihydrophenazine]",0.244
7,"Cc1cncc(Nc2cc3nc4ccccc4n(-c4ccc(C(F)(F)F)cc4)c-3c/c2=N\C2CCOCC2)c1 [TBI-723, 5-(4-Trifluoromethylphenyl)-3-(4-tetrahydropyranyl)imino-2-(5-methyl-3-pyridyl)amino-3,5-dihydrophenazine]",0.041
8,"COc1ncccc1Nc1cc2nc3ccccc3n(-c3ccc(F)cc3)c-2c/c1=N\C1CCSCC1 [TBI-1042, 5-(4-Fluorophenyl)-3-(4-tetrahydrothiopyranyl)imino-2-(2-methoxy-3-pyridyl)amino-3,5-dihydrophenazine]",0.034
9,"COC1CCC(N=c2cc3n(-c4ccc(C(F)(F)F)cc4)c4ccccc4nc-3cc2Nc2cccnc2C)CC1 (stereo not shown) [TBI-706, 5-(4-Trifluoromethylphenyl)-3-(4-methoxycyclohexyl)imino-2-(2-methyl-3-pyridyl)amino-3,5-dihydrophenazine]",0.011
10,"Cc1ccc(-n2c3c/c(=N\C4CCN(C5CCCC5)CC4)c(Nc4cccnc4)cc-3nc3ccccc32)cc1 [TBI-307, 5-(4-Methylphenyl)-3-(N-cyclopentyl-4-piperidyl)imino-2-(3-pyridyl)amino-3,5-dihydrophenazine]",0.125
11,"COc1ccc2nc3cc(Nc4ccc(C)nc4)/c(=N/C4CCC(OC)CC4)cc-3n(-c3ccc(Cl)cc3)c2c1 (stereo not shown) [TBI-867, 7-Methoxy-5-(4-chlorophenyl)-3-(4-methoxycyclohexyl)imino-2-(6-methyl-3-pyridyl-amino)-3,5-dihydrophenazine]",0.058
12,"Cc1ccc(Nc2cc3nc4ccccc4n(-c4ccc(C(F)(F)F)cc4)c-3c/c2=N\C2CCN(C)CC2)cn1 [TBI-697, 5-(4-Trifluoromethylphenyl)-3-(N-methyl-4-piperidyl)imino-2-(6-methyl-3-pyridyl)amino-3,5-dihydrophenazine]",0.053
13,"COc1ncccc1Nc1cc2nc3ccccc3n(-c3ccccc3)c-2c/c1=N\C1CC1 [TBI-097, 5-Phenyl-3-cyclopropylimino-2-(2-methoxy-3-pyridyl)amino-3,5-dihydrophenazine]",0.032
14,"COCC(C/N=c1\cc2n(-c3ccc(Cl)cc3)c3ccccc3nc-2cc1Nc1cccnc1OC)OC (stereo not shown) [TBI-872, 5-(4-Chlorophenyl)-3-(2,3-dimethoxy-1-propyl)imino-2-(2-methoxy-3-pyridyl)amino-3,5-dihydrophenazine]",0.06
15,"CC(C)/N=c1\cc2n(-c3ccccc3Cl)c3ccccc3nc-2cc1Nc1cccnc1 [TBI-890, 5-(2-Chlorophenyl)-3-(1-methylethyl)imino-2-(3-pyridyl)amino-3,5-dihydrophenazine]",0.476
16,"COc1ncccc1Nc1cc2nc3ccccc3n(-c3ccc(F)cc3)c-2c/c1=N\C1CCOCC1 [TBI-1003, 5-(4-Fluorophenyl)-3-(4-tetrahydropyranyl)imino-2-(2-methoxy-3-pyridyl)amino-3,5-dihydrophenazine]",0.039
17,"Cc1ccc(Nc2cc3nc4cc(F)ccc4n(-c4ccc(OC(F)(F)F)cc4)c-3c/c2=N\C2CCCCC2)cn1 [TBI-865, 8-Fluoro-5-(4-trifluoromethoxyphenyl)-3-cyclohexylimino-2-(6-methyl-3-pyridyl)amino-3,5-dihydrophenazine]",0.031

row,SMILES,MIC [µg/mL]
1,COc1ccc(Nc2cc3nc4ccccc4n(-c4ccc(C(F)(F)F)cc4)c-3c/c2=N\C2CCCCC2)cn1 [TBI-732],0.113
2,"Cc1ccc(Nc2cc3nc4ccccc4n(-c4ccc(Cl)c(Cl)c4)c-3c/c2=N\C2CCCCC2)cn1 [TBI-354, 5-(3,4-Dichlorophenyl)-3-cyclohexylimino-2-(6-methyl-3-pyridyl)amino-3,5-dihydrophenazine]",0.229
3,"COC1CCC(/N=c2\cc3n(-c4cccc(OC(F)(F)F)c4)c4ccccc4nc-3cc2Nc2cccnc2C)CC1 (stereo not shown) [TBI-1033, 5-(3-Trifluoromethoxyphenyl)-3-(4-methoxycyclohexyl)imino-2-(2-methyl-3-pyridyl)amino-3,5-dihydrophenazine]",0.242
4,"Cc1cncc(Nc2cc3nc4ccccc4n(-c4ccc(F)cc4)c-3c/c2=N\C(C)C)c1 [TBI-1025, 5-(4-Fluorophenyl)-3-(1-methylethyl)imino-2-(5-methyl-3-pyridyl)amino-3,5-dihydrophenazine]",0.122
5,"COc1ncccc1Nc1cc2nc3ccccc3n(-c3ccc(F)cc3)c-2c/c1=N\C1CCN(C)CC1 [TBI-1005, 5-(4-Fluorophenyl)-3-(N-methyl-4-piperidyl)imino-2-(2-methoxy-3-pyridyl)amino-3,5-dihydrophenazine]",0.213
6,"Cc1ccc(Nc2cc3nc4ccc(F)cc4n(-c4ccc(OC(F)(F)F)cc4)c-3c/c2=N\C(C)C)cn1 [TBI-854, 7-Fluoro-5-(4-trifluoromethoxyphenyl)-3-(1-methylethyl)imino-2-(6-methyl-3-pyridyl)amino-3,5-dihydrophenazine]",0.067
7,"Cc1ncccc1Nc1cc2nc3ccccc3n(-c3ccc(C(F)(F)F)cc3)c-2c/c1=N\C1CCC(O)CC1 (stereo not shown) [TBI-709, 5-(4-Trifluoromethylphenyl)-3-(4-hydroxycyclohexyl)imino-2-(2-methyl-3-pyridyl)amino-3,5-dihydrophenazine]",0.108
8,"COc1ncccc1Nc1cc2nc3ccccc3n(-c3ccc(OC(F)(F)F)cc3)c-2c/c1=N\C1CC1 [TBI-364, 5-(4-Trifluoromethoxyphenyl)-3-cyclopropylimino-2-(2-methoxy-3-pyridyl)amino-3,5-dihydrophenazine]",0.015
9,"COc1ccc(Nc2cc3nc4ccccc4n(-c4ccccc4)c-3c/c2=N\C2CCOCC2)cn1 [TBI-515, 5-Phenyl-3-(4-tetrahydropyranyl)imino-2-(6-methoxy-3-pyridyl)amino-3,5-dihydrophenazine]",0.233
10,COc1ncccc1Nc1cc2nc3ccccc3n(-c3ccc(C(F)(F)F)cc3)c-2c/c1=N\C1CCN(CC(C)C)CC1 [TBI-702],0.016
11,"COc1ncccc1Nc1cc2nc3ccccc3n(-c3ccc(OC(F)(F)F)cc3)c-2c/c1=N\C1CCN(C)CC1 [TBI-168, 5-(4-Trifluoromethoxyphenyl)-3-(N-methyl-4-piperidyl)imino-2-(2-methoxy-3-pyridyl)amino-3,5-dihydrophenazine]",0.109
12,"COc1ncccc1Nc1cc2nc3cc(F)ccc3n(-c3ccc(Cl)c(Cl)c3)c-2c/c1=N\C1CCOCC1 [TBI-877, 8-Fluoro-5-(3,4-dichlorophenyl)-3-(4-tetrahydropyranyl)imino-2-(2-methoxy-3-pyridyl)amino-3,5-dihydrophenazine]",0.091
13,"COc1ncccc1Nc1cc2nc3ccccc3n(-c3ccc(OC(F)(F)F)cc3)c-2c/c1=N\C1CCN(CC(C)C)CC1 [TBI-165, 5-(4-Trifluoromethoxyphenyl)-3-(N-isobutyl-4-piperidyl)imino-2-(2-methoxy-3-pyridyl)amino-3,5-dihydrophenazine]",0.016
14,"COCC(C/N=c1\cc2n(-c3ccc(F)cc3)c3ccccc3nc-2cc1Nc1cccnc1OC)OC (stereo not shown) [TBI-1049, 5-(4-Fluorophenyl)-3-(2,3-dimethoxy-1-propyl)imino-2-(2-methoxy-3-pyridyl)amino-3,5-dihydrophenazine]",0.162
15,"Cc1ccc(Nc2cc3nc4ccccc4n(-c4ccc(Br)cc4)c-3c/c2=N\C(C)C)cn1 [TBI-099, 5-(4-Bromophenyl)-3-(1-methylethyl)imino-2-(6-methyl-3-pyridyl)amino-3,5-dihydrophenazine]",0.049
16,"Cc1ccc(-n2c3c/c(=N\C4CCC4)c(Nc4ccc(C)nc4)cc-3nc3ccccc32)cc1 [TBI-346, 5-(4-Methylphenyl)-3-cyclobutylimino-2-(6-methyl-3-pyridyl)amino-3,5-dihydrophenazine]",0.058
17,"Cc1ccc(Nc2cc3nc4ccccc4n(-c4ccccc4)c-3c/c2=N\C2CCN(CC(C)C)CC2)cn1 [TBI-068, 5-Phenyl-3-(N-isobutyl-4-piperidyl)imino-2-(6-methyl-3-pyridyl)amino-3,5-dihydrophenazine]",0.156

# Same assay, conditions: in vitro, Mycobacterium tuberculosis H37Rv strains
row,SMILES,MIC (μg/mL) against H37Rv [µg/mL]
1,"COc1ncccc1Nc1cc2nc3ccccc3n(-c3ccc(F)c(F)c3)c-2c/c1=N\C1CCOCC1 [TBI-1428, 5-(3,4-Difluorophenyl)-3-(4-tetrahydropyranyl)imino-2-(2-methoxy-3-pyridyl)amino-3,5-dihydrophenazine]",0.054
